Data set [1] concerns the target T1, hPXR (Homo sapiens (Human), UniProt O75469). As to the kind of experiment: hPXR binding assay. The following applies: for inhibition at 10 µM: read-out: Binding (% inhibition at 10 μM).
The target in data set [2] is T1, hPXR. As to the kind of experiment: cell-based hPXR inverse agonistic assay. The following applies: for inhibition at 10 µM: read-out: Inverse agonist (% inhibition at 10 μM).
For data set [3], the target named is T1, hPXR. As to the kind of experiment: cell-based hPXR agonistic assay. The following applies: for Agonist (% activation at 10 μM): rifampicin at 10 μM as 100% activation, DMSO (0.3%) as 0%.
Data set [4] deals with T1, hPXR. As to the kind of experiment: cell-based hPXR antagonistic assay. As to conditions: for inhibition at 10 µM: read-out: Antagonist (% inhibition at 10 μM).
The mark [5] stands for this setting: read-out: Binding (IC50/μM), hPXR binding assay.

T1 sequence (O75469 whole entry): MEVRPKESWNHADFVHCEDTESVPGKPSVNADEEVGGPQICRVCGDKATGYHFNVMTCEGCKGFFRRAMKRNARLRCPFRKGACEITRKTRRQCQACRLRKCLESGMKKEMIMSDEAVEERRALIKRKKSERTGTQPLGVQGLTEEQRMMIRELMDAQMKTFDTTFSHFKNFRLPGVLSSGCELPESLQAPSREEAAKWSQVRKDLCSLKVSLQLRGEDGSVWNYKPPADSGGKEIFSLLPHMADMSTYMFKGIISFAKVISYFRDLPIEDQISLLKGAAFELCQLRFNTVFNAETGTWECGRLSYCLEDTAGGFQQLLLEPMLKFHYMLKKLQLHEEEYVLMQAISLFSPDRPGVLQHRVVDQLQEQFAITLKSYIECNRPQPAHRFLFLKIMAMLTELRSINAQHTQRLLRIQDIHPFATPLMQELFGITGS

Consider `COc1ccc(OC)c(-n2nnc(N(S(=O)(=O)c3ccc(C(C)(C)C)cc3)S(=O)(=O)c3ccc(C(C)(C)C)cc3)c2C)c1` [K8], for which the inhibition at 10 µM on hPXR [1] is 70%; at hPXR [4], 49%. Further, the values for the IC50 on hPXR [1] (setting [5]), at hPXR [2] and against hPXR [4] were 0.14 µM, over 30000 nM and 1450 ± 200 nM, respectively. For the same compound, on hPXR [3], the EC50 was found to be 190 nM. The “Agonist (% activation at 10 μM)” value on hPXR [3] is reported as “(21 ± 3)%”.
On to `COc1ccc(OC)c(-n2nnc(C(=O)Nc3cc(OCCOCCOCCOCCNC(=O)CCCC[C@@H]4SC[C@@H]5NC(=O)N[C@@H]54)cc(C(C)(C)C)c3)c2C)c1` [L1], for which the IC50 at hPXR [1] was over 30 µM; at hPXR [2], over 30000 nM; on hPXR [4], 5440 ± 1000 nM. On hPXR [3], this compound yielded an EC50 of over 30000 nM. Besides, the inhibition at 10 µM at hPXR [4] was 40%.
For the compound `CCC[C@H](CC)Oc1ccc(C(C)(C)C)cc1NC(=O)c1nnn(-c2cc(OC)ccc2OC)c1C` [M1, (S)—N-(5-(Tert-Butyl)-2-(Hexan-3-yloxy)Phenyl)-1-(2,5-Dimethoxyphenyl)-5-Methyl-1H-1,2,3-Triazole-4-Carboxamide], the inhibition at 10 µM stood at 93% at hPXR [1], 165% on hPXR [2] and 105% at hPXR [4]. In addition, the IC50 at hPXR [1] (setting [5]) came to 0.015 ± 0.003 µM; at hPXR [2], 1.1 ± 0.5 nM; against hPXR [4], 6.9 ± 0.5 nM. The compound also came in with a 50% effective concentration (EC50) at hPXR [3] of over 30000 nM.
Turning to `CCC[C@@H](CC)Oc1ccc(C(C)(C)C)cc1NC(=O)c1nnn(-c2cc(OC)ccc2OC)c1C` [M2, (R)—N-(5-(Tert-Butyl)-2-(Hexan-3-yloxy)Phenyl)-1-(2,5-Dimethoxyphenyl)-5-Methyl-1H-1,2,3-Triazole-4-Carboxamide], the results for the inhibition at 10 µM at hPXR [1], at hPXR [2] and on hPXR [4] were 88%, 130% and 103%, respectively. In addition, the values for the IC50 on hPXR [1] (setting [5]), at hPXR [2] and at hPXR [4] were 0.019 ± 0.003 µM, 8.4 ± 4 nM and 52 ± 10 nM, respectively. Moreover, the EC50 at hPXR [3] is over 30000 nM.
Regarding `CCC[C@H](CC)Oc1ccccc1NC(=O)c1nnn(-c2cc(OC)ccc2OC)c1C` [M3, (S)-1-(2,5-Dimethoxyphenyl)-N-(2-(Hexan-3-yloxy)Phenyl)-5-Methyl-1H-1,2,3-Triazole-4-Carboxamide], the inhibition at 10 µM was 77% on hPXR [1], 106% at hPXR [2] and 107% on hPXR [4]. Further, the results for the IC50 on hPXR [1] (setting [5]), on hPXR [2] and against hPXR [4] were 0.013 ± 0.003 µM, 3.4 ± 0.3 nM and 33 ± 4 nM, respectively. Further, on hPXR [3], the half-maximal effective concentration (EC50) is over 30000 nM.
Consider `CCC[C@H](CC)Oc1ccc(C(=O)OC)cc1NC(=O)c1nnn(-c2cc(OC)ccc2OC)c1C` [M4, Methyl (S)-3-(1-(2,5-Dimethoxyphenyl)-5-Methyl-1H-1,2,3-Triazole-4-Carboxamido)-4-(Hexan-3-yloxy)Benzoate], for which the IC50 at hPXR [1] is 0.003 µM; on hPXR [2], 1 nM; against hPXR [4], 6 nM. Further, the inhibition at 10 µM at hPXR [1] was determined as 84%; at hPXR [2], 142%; on hPXR [4], 112%. Moreover, the EC50 on hPXR [3] was over 30000 nM.
As to `CCC[C@H](CC)Oc1ccc(C(C)(C)C)cc1NC(=O)c1nnn(-c2cc(OC)c(OC)cc2OC)c1C` [M9, (S)—N-(5-(Tert-Butyl)-2-(Hexan-3-yloxy)Phenyl)-5-Methyl-1-(2,4,5-Trimethoxyphenyl)-1H-1,2,3-Triazole-4-Carboxamide], the values for the inhibition at 10 µM on hPXR [1] and on hPXR [4] were 91% and 32%, respectively. Moreover, the IC50 on hPXR [1] (setting [5]) is 0.0078 ± 0.0001 µM; at hPXR [2] it was over 30000 nM; against hPXR [4], 120 ± 10 nM. The compound also yielded an EC50 at hPXR [3] of 13 ± 10 nM. The “Agonist (% activation at 10 μM)” value on hPXR [3] was “(69 ± 4)%”.
For `CCC[C@H](CC)Oc1ccc(C(C)(C)C)cc1NC(=O)c1nnn(-c2cc(OC)c(F)cc2OC)c1C` [M10, (S)—N-(5-(Tert-Butyl)-2-(Hexan-3-yloxy)Phenyl)-1-(4-Fluoro-2,5-Dimethoxyphenyl)-5-Methyl-1H-1,2,3-Triazole-4-Carboxamide], the results for the inhibition at 10 µM at hPXR [1], on hPXR [2] and on hPXR [4] were 92%, 92% and 104%, respectively. The IC50 at hPXR [1] (setting [5]) was found to be 0.02 ± 0.005 µM; on hPXR [2], 4.4 ± 1.5 nM; on hPXR [4] it was 23 ± 3 nM. This compound registered a half-maximal effective concentration (EC50) on hPXR [3] of over 30000 nM.
With `CCC[C@H](CC)Oc1ccc(C(C)(C)C)cc1NC(=O)c1nnn(-c2cc(C)c(OC)cc2OC)c1C` [M11, (S)—N-(5-(Tert-Butyl)-2-(Hexan-3-yloxy)Phenyl)-1-(2,4-Dimethoxy-5-Methylphenyl)-5-Methyl-1H-1,2,3-Triazole-4-Carboxamide], at hPXR [1], the IC50 is 0.045 ± 0.013 µM and the inhibition at 10 µM was 94%. The compound further gave an IC50 at hPXR [2] of over 30000 nM. Also, at hPXR [3], the EC50 is 6.6 ± 0.2 nM and the “Agonist (% activation at 10 μM)” value is given as “(92 ± 8)%”. For the same compound, at hPXR [4], the IC50 was 65000 ± 28000 nM and the inhibition at 10 µM turned out to be 15%.
Consider `CCC[C@H](CC)Oc1ccc(C(C)(C)C)cc1NC(=O)c1nnn(-c2cc(Cl)c(Cl)cc2OC)c1C` [M12, (S)—N-(5-(Tert-Butyl)-2-(Hexan-3-yloxy)Phenyl)-1-(4,5-Dichloro-2-Methoxyphenyl)-5-Methyl-1H-1,2,3-Triazole-4-Carboxamide], for which the inhibition at 10 µM on hPXR [1] was 90%; at hPXR [2], 97%; at hPXR [4], 99%. In addition, the IC50 on hPXR [1] (setting [5]) was 0.23 ± 0.1 µM; at hPXR [2] it was 65 ± 39 nM; against hPXR [4], 320 ± 20 nM. The EC50 at hPXR [3] is over 30000 nM.

The values above are taken from patent publication US20250282736A1, “SMALL MOLECULE MODULATORS OF HUMAN PREGNANE X RECEPTOR” (ST. JUDE CHILDREN'S RESEARCH HOSPITAL, priority 2022, published 2025).
